Results from paper PMC9273165, “Metal-free domino amination-Knoevenagel condensation approach to access new coumarins as potent nanomolar inhibitors of VEGFR-2 and EGFR” (Green chemistry letters and reviews, 2021).
“And” between values parts separate entries of the source, which are not always exact repeats. Equal values may be shown once. Read-outs that look alike come from different tables or passages of the source. Starred links: 1 amine or outer side, 2 acyl side, 3 side chain; linkers in the order of their positions; H or OH if unused. Positions of bridges follow the written chain, without caps; N, C: chain ends. Non-standard residues stand in square brackets, D forms with d. Residues, ends and D or L forms follow the SMILES beside them. Chains are numbered I, II in the order given. Actinocin(9to1) = Cc1c2oc3c(C)ccc(C(=O)[*:1])c3nc-2c(C(=O)[*:2])c(N)c1=O; NMeV = CN[C@H](C(=O)O)C(C)C; Sar = CNCC(=O)O

Experiments:
KB-3-1 cell line = test: resazurin-based cytotoxicity assay, KB-3-1
Protocol: Anti-cervical cancer activity of all the synthesized compounds was evaluated for their in vitro cytotoxicity toward KB-3-1 cell line by resazurin-based assay [49] using (+)-griseofulvin as a positive control.
Anti-cervical cancer activity of all the synthesized compounds were evaluated for the in vitro cytotoxicity toward KB-3-1 cell line (was obtained from the American Type Culture Collection, ATCC, Rockville, MD, USA) by resazurin-based assay [49] using (+)-griseofulvin as a positive control.

[1] = tested on: PC3 (prostate) human cancer cell line; test: resazurin-based cytotoxicity assay, PC3; format: cell-based; conditions: for IC50: PC3 (prostate), 72 h incubation, mean ± SD of triplicate wells
Text: (§1) (Table 2, Figure 3). […] The remaining molecules pretended with low cytotoxic effect. Grounded on these outcomes, we concluded that the 4-AMP and morpholine moieties would be the optimal cyclic secondary amines in this study.

[2] = tested on: A549 (non-small cell lung) human cancer cell line; test: resazurin-based cytotoxicity assay, A549; format: cell-based; conditions: for IC50: A549 (non-small cell lung), 72 h incubation, mean ± SD of triplicate wells
Text: as §1

VEGFR-2 (KDR) = target: T1, VEGFR-2 (KDR) (Homo sapiens, UniProt P35968); test: VEGFR-2 (KDR) Kinase Assay Kit, luminescence; format: biochemical; conditions: for VEGFR-2 Fold to sorafenib: IC50 relative to the standard sorafenib; for IC50: kinase assay kit, luminescence
T1 construct: purchased 40325
T1 sequence (P35968 20-1356): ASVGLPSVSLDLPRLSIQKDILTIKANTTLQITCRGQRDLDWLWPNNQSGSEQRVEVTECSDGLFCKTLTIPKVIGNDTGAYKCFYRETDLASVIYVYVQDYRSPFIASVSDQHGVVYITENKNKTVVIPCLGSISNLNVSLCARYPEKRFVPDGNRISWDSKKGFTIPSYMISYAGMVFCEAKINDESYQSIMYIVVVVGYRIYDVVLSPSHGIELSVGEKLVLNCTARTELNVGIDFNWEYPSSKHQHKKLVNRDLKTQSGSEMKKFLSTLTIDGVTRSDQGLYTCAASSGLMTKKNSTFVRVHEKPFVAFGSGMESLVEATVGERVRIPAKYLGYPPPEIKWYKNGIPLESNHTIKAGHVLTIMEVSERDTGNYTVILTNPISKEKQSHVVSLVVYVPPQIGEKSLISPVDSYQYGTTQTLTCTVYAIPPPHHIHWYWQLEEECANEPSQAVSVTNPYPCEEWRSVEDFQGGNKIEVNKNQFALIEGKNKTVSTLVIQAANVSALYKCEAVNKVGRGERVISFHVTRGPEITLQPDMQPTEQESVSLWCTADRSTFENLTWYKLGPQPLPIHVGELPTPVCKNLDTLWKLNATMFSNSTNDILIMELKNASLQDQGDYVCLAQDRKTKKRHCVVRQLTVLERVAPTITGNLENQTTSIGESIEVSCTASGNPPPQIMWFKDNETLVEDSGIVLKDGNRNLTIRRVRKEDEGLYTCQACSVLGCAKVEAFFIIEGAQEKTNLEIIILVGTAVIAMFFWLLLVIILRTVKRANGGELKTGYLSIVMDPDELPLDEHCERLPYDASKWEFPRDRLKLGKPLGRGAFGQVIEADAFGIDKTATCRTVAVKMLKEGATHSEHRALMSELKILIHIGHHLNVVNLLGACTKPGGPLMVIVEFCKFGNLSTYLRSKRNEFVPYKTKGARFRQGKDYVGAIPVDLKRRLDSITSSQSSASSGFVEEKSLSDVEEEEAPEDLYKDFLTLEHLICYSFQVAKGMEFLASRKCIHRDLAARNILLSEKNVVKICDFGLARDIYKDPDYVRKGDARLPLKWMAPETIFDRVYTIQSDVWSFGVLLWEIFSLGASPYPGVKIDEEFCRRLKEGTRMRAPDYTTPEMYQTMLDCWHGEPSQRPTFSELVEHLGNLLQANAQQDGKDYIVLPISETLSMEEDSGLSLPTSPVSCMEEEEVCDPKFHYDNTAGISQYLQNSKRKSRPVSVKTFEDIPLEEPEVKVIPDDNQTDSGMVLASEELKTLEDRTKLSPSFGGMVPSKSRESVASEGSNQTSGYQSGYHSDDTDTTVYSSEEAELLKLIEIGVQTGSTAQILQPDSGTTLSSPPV
Protocol: (§2) Overexpression and/or hyperactivation of VEGFR-2 and EGFR kinases are strongly associated with several malignant cancers such as non-small cell lung carcinoma (NSCLC), breast, ovarian, colon, and prostate cancers. Targeting one or both of them is a promising pathway to explore more anti-angiogenic inhibitors. […] At the end of the experiment, the luminescence was measured by Tecan spark microplate reader. The compounds concentration that inactivate 50% of the measured kinases was separately, calculated using a curve fitting software; Prism, version 6.

EGFR kinase = target: T2, EGFR kinase (Homo sapiens, UniProt P00533); test: EGFR Kinase Assay Kit, luminescence; format: biochemical; conditions: for EGFR Fold to erlotinib: IC50 relative to the standard erlotinib; for IC50: kinase assay kit, luminescence
T2 construct: purchased 40321
T2 sequence (P00533 25-1210): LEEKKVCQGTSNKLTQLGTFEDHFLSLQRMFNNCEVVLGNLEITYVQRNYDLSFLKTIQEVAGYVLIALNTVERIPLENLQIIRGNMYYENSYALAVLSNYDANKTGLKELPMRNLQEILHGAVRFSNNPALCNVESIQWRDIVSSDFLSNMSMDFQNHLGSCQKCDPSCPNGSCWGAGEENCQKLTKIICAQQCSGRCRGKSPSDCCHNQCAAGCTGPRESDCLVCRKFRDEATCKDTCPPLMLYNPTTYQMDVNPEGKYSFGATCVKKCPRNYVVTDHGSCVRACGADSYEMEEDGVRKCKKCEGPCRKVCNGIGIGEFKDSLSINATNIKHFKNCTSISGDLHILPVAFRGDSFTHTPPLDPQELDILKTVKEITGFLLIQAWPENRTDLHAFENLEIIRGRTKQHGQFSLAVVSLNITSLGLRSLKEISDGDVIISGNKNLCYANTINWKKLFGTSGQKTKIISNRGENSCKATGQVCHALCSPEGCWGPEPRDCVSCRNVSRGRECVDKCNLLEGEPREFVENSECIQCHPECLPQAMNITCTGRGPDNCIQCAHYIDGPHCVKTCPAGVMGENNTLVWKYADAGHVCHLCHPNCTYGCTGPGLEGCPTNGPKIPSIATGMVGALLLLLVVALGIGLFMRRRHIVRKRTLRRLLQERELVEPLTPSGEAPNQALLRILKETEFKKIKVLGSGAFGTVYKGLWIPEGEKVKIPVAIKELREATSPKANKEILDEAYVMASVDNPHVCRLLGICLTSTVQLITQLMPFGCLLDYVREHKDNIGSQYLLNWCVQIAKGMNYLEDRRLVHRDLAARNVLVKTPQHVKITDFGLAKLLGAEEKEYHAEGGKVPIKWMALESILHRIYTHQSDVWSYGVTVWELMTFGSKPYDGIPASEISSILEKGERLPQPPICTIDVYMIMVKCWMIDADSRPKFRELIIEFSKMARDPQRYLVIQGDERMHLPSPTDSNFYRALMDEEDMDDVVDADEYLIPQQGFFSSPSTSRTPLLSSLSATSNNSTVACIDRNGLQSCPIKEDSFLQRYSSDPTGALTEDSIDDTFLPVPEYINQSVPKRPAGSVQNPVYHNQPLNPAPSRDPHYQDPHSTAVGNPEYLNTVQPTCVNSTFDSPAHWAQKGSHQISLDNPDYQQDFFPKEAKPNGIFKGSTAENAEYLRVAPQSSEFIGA
Protocol: as §2

[3] = Homo sapiens, KB 3-1, read-out: IC50 (μM) KB-3-1
[4] = KB-3-1 (cervix) human cancer cell line, mean ± SD of two independent determinations

melting point [°C]	VEGFR-2 Fold to sorafenib (VEGFR-2 (KDR)) [fold]	IC50 (VEGFR-2 (KDR))	EGFR Fold to erlotinib (EGFR kinase) [fold]	IC50 (EGFR kinase)	SMILES	IC50 (KB-3-1 cell line; read-out: IC50 (μM) KB-3-1, KB-3-1 (cervix) human cancer cell line, mean ± SD of two independent determinations) [µM]	viability at 20 µM ([1]; PC3, positive control at 20 μM, 72 h, read-out: viable cells) [%]	viability at 20 µM ([2]; A549, positive control at 20 μM, 72 h, read-out: viable cells) [%]	IC50 (KB-3-1 cell line; [3]) [µM]	IC50 (μM) KB-3-1 (KB-3-1 cell line; [4])	IC50 [1] [µM]	IC50 [2] [µM]
–	–	–	–	–	COC1=CC(=O)C[C@@H](C)[C@]12Oc1c(Cl)c(OC)cc(OC)c1C2=O [(+)-Griseofulvin, (+)-griseofulvin, reference compound]	19 ± 2.83	–	–	–	–	–	–
–	–	–	–	–	Cc1c2oc3c(C)ccc(C(=O)N[C@@H]4C(=O)N[C@H](C(C)C)C(=O)N5CCC[C@H]5C(=O)N(C)CC(=O)N(C)[C@@H](C(C)C)C(=O)O[C@@H]4C)c3nc-2c(C(=O)N[C@@H]2C(=O)N[C@H](C(C)C)C(=O)N3CCC[C@H]3C(=O)N(C)CC(=O)N(C)[C@@H](C(C)C)C(=O)O[C@@H]2C)c(N)c1=O [Actinomycin D, reference compound] (I: T[dV]P[Sar][NMeV] / II: T[dV]P[Sar][NMeV]; ester I:1-I:C, II:1-II:C; linker I:N-II:N via Actinocin(9to1))	–	0	0	–	–	–	–
230 to 232	–	–	–	–	COC(=O)/C(C#N)=C/c1c(N2CCCC2)c2ccccc2oc1=O [Compound 4a, Methyl (E)-2-cyano-3-(2-oxo-4-(pyrrolidin-1-yl)-2H-chromen-3-yl)acrylate]	–	–	–	> 100	no activity	> 80	> 80
192 to 194	–	–	–	–	COC(=O)/C(C#N)=C/c1c(N2CCCCC2)c2ccccc2oc1=O [Compound 4b, Methyl (E)-2-cyano-3-(2-oxo-4-(piperidin-1-yl)-2H-chromen-3-yl)acrylate]	–	–	–	> 100	no activity	> 50	> 80
194 to 196	–	–	–	–	COC(=O)/C(C#N)=C/c1c(N2CCC(O)CC2)c2ccccc2oc1=O [Compound 4c, Methyl (E)-2-cyano-3-(4-(4-hydroxypiperidin-1-yl)-2-oxo-2H-chromen-3-yl)acrylate]	–	–	–	> 100	–	> 50	> 80
218 to 220	–	–	–	–	COC(=O)/C(C#N)=C/c1c(N2CCOCC2)c2ccccc2oc1=O [Compound 4d, Methyl (E)-2-cyano-3-(4-morpholino-2-oxo-2H-chromen-3-yl)acrylate]	–	–	–	> 100	–	> 50	> 80
172 to 174	1.2	0.037 µM and 0.0368 µM	2.5	0.067 µM and 0.0671 µM	COC(=O)/C(C#N)=C/c1c(NCC2CCNCC2)c2ccccc2oc1=O [Compound 4e, Methyl (E)-2-cyano-3-(2-oxo-4-((piperidin-4-ylmethyl)amino)-2H-chromen-3-yl)acrylate]	–	–	–	15.5 ± 3.54	–	11.28 ± 0.06	12.9 ± 1.51
148 to 150	–	–	–	–	COC(=O)/C(C#N)=C/c1c(OC)c2ccccc2oc1=O [Compound 4f, Methyl (E)-2-cyano-3-(4-methoxy-2-oxo-2H-chromen-3-yl)acrylate]	–	–	–	> 100	no activity	38.9	> 80
190 to 192	–	–	–	–	O=Cc1c(N2CCCC2)c2ccccc2oc1=O [Compound 5a, 4-Pyrrolidino-3-formyl-2H-chromen-2-one]	–	–	–	> 100	no activity	> 80	> 80
150 to 152	–	–	–	–	O=Cc1c(N2CCOCC2)c2ccccc2oc1=O [Compound 5d, 4-Morpholino-3-formyl-2H-chromen-2-one]	–	–	–	> 100	–	31.1	> 50
208 to 210	2.8	0.088 µM and 0.0881 µM	3.6	0.096 µM and 0.0963 µM	O=Cc1c(NCC2CCNCC2)c2ccccc2oc1=O [Compound 5e, 4-((Piperidin-4-ylmethyl)amino)-3-formyl-2H-chromen-2-one]	–	–	–	> 70	–	> 80	> 80
118 to 120	–	–	–	–	COc1c(C=O)c(=O)oc2ccccc12 [Compound 5f, 4-Methoxy-3-formyl-2H-chromen-2-one]	–	–	–	> 100	no activity	> 80	> 80
> 320	–	–	–	–	N#CC(C#N)=C(N)/C(C#N)=C/c1c(N2CCCC2)c2ccccc2oc1=O [Compound 8a, (Z)-2-amino-4-(2-oxo-4-(pyrrolidin-1-yl)-2H-chromen-3-yl)buta-1,3-diene-1,1,3-tricarbonitrile]	–	–	–	> 100	–	> 80	> 80
308 to 310	–	–	–	–	N#CC(C#N)=C(N)/C(C#N)=C/c1c(N2CCCCC2)c2ccccc2oc1=O [Compound 8b, (Z)-2-amino-4-(2-oxo-4-(piperidin-1-yl)-2H-chromen-3-yl)buta-1,3-diene-1,1,3-tricarbonitrile]	–	–	–	> 100	–	> 80	> 80
294 to 296	–	–	–	–	N#CC(C#N)=Cc1c(N2CCC(O)CC2)c2ccccc2oc1=O [Compound 8c, 2-((4-(4-Hydroxypiperidin-1-yl)-2-oxo-2H-chromen-3-yl)methylene)malononitrile]	–	–	–	> 100	–	> 80	> 80
196 to 198	–	–	–	–	N#CC(C#N)=Cc1c(N2CCOCC2)c2ccccc2oc1=O [Compound 8d, 2-((4-Morpholino-2-oxo-2H-chromen-3-yl)methylene)malononitrile]	–	–	–	> 100	–	20.16 ± 0.07	> 80
204 to 206	–	–	–	–	O=c1oc2ccccc2c(N2CCCC2)c1[N+](=O)[O-] [Compound 9a, 4-Pyrrolidino-3-nitro-2H-chromen-2-one]	–	–	–	> 100	–	> 80	> 80
210 to 212	0.8	0.024 µM and 0.0243 µM	6.2	0.165 ± 0.008 µM	O=c1oc2ccccc2c(N2CCOCC2)c1[N+](=O)[O-] [Compound 9d, 4-Morpholino-3-nitro-2H-chromen-2-one]	–	–	–	> 70	–	7.31 ± 0.48	19.8 ± 0.56
208 to 210	–	–	–	–	O=c1oc2ccccc2c(NCC2CCNCC2)c1[N+](=O)[O-] [Compound 9e, 4-((Piperidin-4-ylmethyl)amino)-3-nitro-2H-chromen-2-one]	–	–	–	> 100	no activity	> 80	> 80
–	–	–	–	–	COc1c([N+](=O)[O-])c(=O)oc2ccccc12 [Compound 9f, 4-Methoxy-3-nitro-2H-chromen-2-one]	–	–	–	> 100	no activity	–	–

SMILES	melting point [°C]	VEGFR-2 Fold to sorafenib (VEGFR-2 (KDR)) [fold]	IC50 (VEGFR-2 (KDR))	EGFR Fold to erlotinib (EGFR kinase) [fold]	IC50 (EGFR kinase)	IC50 (KB-3-1 cell line; read-out: IC50 (μM) KB-3-1, KB-3-1 (cervix) human cancer cell line, mean ± SD of two independent determinations) [µM]	viability at 20 µM ([1]; PC3, positive control at 20 μM, 72 h, read-out: viable cells) [%]	viability at 20 µM ([2]; A549, positive control at 20 μM, 72 h, read-out: viable cells) [%]	IC50 (KB-3-1 cell line; [3]) [µM]	IC50 (μM) KB-3-1 (KB-3-1 cell line; [4])	IC50 [1] [µM]	IC50 [2] [µM]
N#CC(C#N)=Cc1c(NCC2CCNCC2)c2ccccc2oc1=O [Compound 8e, 2-((2-Oxo-4-((piperidin-4-ylmethyl)amino)-2H-chromen-3-yl)methylene)malononitrile]	154 to 156	0.8	0.025 µM and 0.0247 µM	1.2	0.032 µM and 0.0316 µM	–	–	–	21 ± 4.24	–	> 50	> 50
